# Data: patent US20240140933A1, “OXOINDOLINE COMPOUND FOR THE TREATMENT OF INFLAMMATORY DISEASES OR CANCER” (Hoffmann-La Roche Inc., priority 2021, published 2024)
# Biological target: PDHK1 (Homo sapiens (Human), UniProt Q15118)
# Assay: PDHK1 enzymatic assay (AlphaScreen, phosphorylation of PDHE1 S293)
# Assay type: biochemical
# Settings: 1 nM PDHK1, 25 nM PDHE1, 20 μM ATP, 30° C. for 45 minutes
# Source text: Pyruvate dehydrogenase complex (PDHc) is an enzyme that catalyzes the reaction of pyruvate and a lipoamide to give the acetylated dihydrolipoamide and carbon dioxide. PDHc has three subunits E1, E2 and E3. E1 has 3 serine phosphorylation sites S293, S232, S300. If E1 was phosphorylated, PDH will be inactivated. PDHK can phosphorylate PDH protein (also named PDHE1) in PDH complex (PDC) to inactivate it.
# Sequence of PDHK1 (Q15118 29-436): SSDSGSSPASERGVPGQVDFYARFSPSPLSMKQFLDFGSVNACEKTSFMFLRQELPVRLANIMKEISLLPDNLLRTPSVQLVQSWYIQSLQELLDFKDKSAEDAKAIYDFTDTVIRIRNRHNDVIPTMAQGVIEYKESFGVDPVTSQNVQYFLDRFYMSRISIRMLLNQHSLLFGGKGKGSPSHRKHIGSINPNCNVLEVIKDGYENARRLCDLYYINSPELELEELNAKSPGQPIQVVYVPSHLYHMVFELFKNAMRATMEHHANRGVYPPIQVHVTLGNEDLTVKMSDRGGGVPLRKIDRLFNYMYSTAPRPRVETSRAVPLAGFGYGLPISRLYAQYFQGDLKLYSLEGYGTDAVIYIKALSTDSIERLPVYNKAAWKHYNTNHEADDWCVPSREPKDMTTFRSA
row,SMILES,Enzymatic IC50 against PDHK1 [µg/mL]
1,"CCNc1cc(F)cc2c1NC(=O)C2(C)N1C[C@@H](C)C[C@@H](Nc2ccc(C#N)nc2)C1 (stereo partly drawn) [Example 47, 5-[[(3R,5S)-1-[7-(ethylamino)-5-fluoro-3-methyl-2-oxo-indolin-3-yl]-5-methyl-3-piperidyl]amino]pyridine-2-carbonitrile]",0.019
2,"CCNc1cc(F)cc2c1NC(=O)C2(C)N1CCC[C@@H](Nc2cccc(S(=O)(=O)F)c2)C1 (stereo partly drawn) [Example 27, 3-[[(3R)-1-[7-(ethylamino)-5-fluoro-3-methyl-2-oxo-indolin-3-yl]-3-piperidyl]amino]benzenesulfonyl fluoride]",0.086
3,"CCNc1cc(F)cc2c1NC(=O)C2(C)N1CC[C@H](c2ccccc2Oc2ccc(C(=O)O)cc2)[C@@H](NC(C)=O)C1 (stereo partly drawn) [Example 56, 4-[2-[(3R,4R)-3-acetamido-1-[7-(ethylamino)-5-fluoro-3-methyl-2-oxo-indolin-3-yl]-4-piperidyl]phenoxy]benzoic acid]",0.005
4,"CCNc1cc(F)cc2c1NC(=O)[C@]2(C)N1CCC[C@@H](Oc2ccc(S(=O)(=O)F)cc2)C1 [Example 3A, 4-[[(3R)-1-[(3R)-7-(ethylamino)-5-fluoro-3-methyl-2-oxo-indolin-3-yl]-3-piperidyl]oxy]benzenesulfonyl fluoride]",0.036
5,"CCNc1cc(F)cc2c1NC(=O)C2(C)N1CCC[C@@H](Nc2cc(C)c(S(=O)(=O)F)cn2)C1 (stereo partly drawn) [Example 30, 4-methyl-6-[[(3R)-1-[7-(ethylamino)-5-fluoro-3-methyl-2-oxo-indolin-3-yl]-3-piperidyl]amino]pyridine-3-sulfonyl fluoride]",0.065
6,"CCNc1cc(F)cc2c1NC(=O)C2(C)N1C[C@H](F)C[C@@H](Nc2ccc(C#N)nc2)C1 (stereo partly drawn) [Example 45, 5-[[(3R,5R)-1-[7-(ethylamino)-5-fluoro-3-methyl-2-oxo-indolin-3-yl]-5-fluoro-3-piperidyl]amino]pyridine-2-carbonitrile]",0.011
7,"CCNc1cc(F)cc2c1NC(=O)C2(C)N1CCC[C@@H](Nc2ccc(C#N)nn2)C1 (stereo partly drawn) [Example 16, 6-[[(3R)-1-[7-(ethylamino)-5-fluoro-3-methyl-2-oxo-indolin-3-yl]-3-piperidyl]amino]pyridazine-3-carbonitrile]",0.047
8,"CCNc1cc(F)cc2c1NC(=O)C2(CC)N1CC[C@H](F)[C@@H](Nc2ccc(C#N)nc2)C1 (stereo partly drawn) [Example 49, 5-[[(3S,4S)-1-[3-ethyl-7-(ethylamino)-5-fluoro-2-oxo-indolin-3-yl]-4-fluoro-3-piperidyl]amino]pyridine-2-carbonitrile]",0.007
9,"CCNc1cc(F)cc2c1NC(=O)C2(C)N1CCC[C@@H](NC(=O)c2cc(F)c(O)c(F)c2)C1 (stereo partly drawn) [Example 35, N-[(3R)-1-[7-(ethylamino)-5-fluoro-3-methyl-2-oxo-indolin-3-yl]-3-piperidyl]-3,5-difluoro-4-hydroxy-benzamide]",0.030
10,"CCNc1cc(F)cc2c1NC(=O)C2(C)N1CCC[C@@H](NC(=O)c2cccc(OS(=O)(=O)F)c2)C1 (stereo partly drawn) [Example 44, 7-(ethylamino)-5-fluoro-3-[(3R)-3-[(3-fluorosulfonyloxybenzoyl)amino]-1-piperidyl]-3-methyl-2-oxo-indoline]",0.022
11,"CCNc1cc(F)cc2c1NC(=O)[C@]2(C)N1CC[C@H](c2ccccc2)[C@H](C(N)=O)C1 [Example 63A, (3S,4S)-1-[(3R)-7-(ethylamino)-5-fluoro-3-methyl-2-oxo-indolin-3-yl]-4-phenyl-piperidine-3-carboxamide]",0.009
12,"CCNc1cc(F)cc2c1NC(=O)C2(C)N1CC[C@H](c2ccccc2)[C@@H](Nc2ccc(C#N)nc2)C1 (stereo partly drawn) [Example 55, 5-[[(3R,4R)-1-[7-(ethylamino)-5-fluoro-3-methyl-2-oxo-indolin-3-yl]-4-phenyl-3-piperidyl]amino]pyridine-2-carbonitrile]",0.037
13,"CCNc1cc(F)cc2c1NC(=O)C2(C)N1CCC[C@@H](Nc2ccc(C#N)cc2)C1 (stereo partly drawn) [Example 8, 4-[[(3R)-1-[7-(ethylamino)-5-fluoro-3-methyl-2-oxo-indolin-3-yl]-3-piperidyl]amino]benzonitrile]",0.022
14,"CCNc1cc(F)cc2c1NC(=O)C2(C)N1CCCC(NC(=O)C2CC3(C2)CN(C#N)C3)C1 (stereo in doubt) [Example 37, 2-cyano-N-[(3R)-1-[7-(ethylamino)-5-fluoro-3-methyl-2-oxo-indolin-3-yl]-3-piperidyl]-2-azaspiro[3.3]heptane-6-carboxamide]",0.039
15,"CCNc1cc(F)cc2c1NC(=O)C2(C)N1CC[C@H](c2ccccc2)[C@@H](NC(=O)C2CN(C#N)C2)C1 (stereo partly drawn) [Example 54, 1-cyano-N-[(3R,4R)-1-[7-(ethylamino)-5-fluoro-3-methyl-2-oxo-indolin-3-yl]-4-phenyl-3-piperidyl]azetidine-3-carboxamide]",0.009
16,"CCNc1cc(F)cc2c1NC(=O)C2(C)N1CCC[C@@H](NC(=O)C2CCN(C#N)CC2)C1 (stereo partly drawn) [Example 38, 1-cyano-N-[(3R)-1-[7-(ethylamino)-5-fluoro-3-methyl-2-oxo-indolin-3-yl]-3-piperidyl]piperidine-4-carboxamide]",0.026
17,"CCNc1cc(F)cc2c1NC(=O)C2(C)N1CCC[C@@H](NC(=O)c2ccc(S(=O)(=O)F)cc2)C1 (stereo partly drawn) [Example 43, 4-[[(3R)-1-[7-(ethylamino)-5-fluoro-3-methyl-2-oxo-indolin-3-yl]-3-piperidyl]carbamoyl]benzenesulfonyl fluoride]",0.016
18,"CCNc1cc(F)cc2c1NC(=O)C2(CC)N1CCC[C@@H](N(C(C)=O)c2ccc(C#N)nc2)C1 (stereo partly drawn) [Example 25, N-(6-cyano-3-pyridyl)-N-[(3R)-1-[3-ethyl-7-(ethylamino)-5-fluoro-2-oxo-indolin-3-yl]-3-piperidyl]acetamide]",0.142
19,"CCNc1cc(F)cc2c1NC(=O)C2(C)N1CCC[C@@H](Nc2ccc(C(=O)O)nc2)C1 (stereo partly drawn) [Example 11, 5-[[(3R)-1-[7-(ethylamino)-5-fluoro-3-methyl-2-oxo-indolin-3-yl]-3-piperidyl]amino]pyridine-2-carboxylic acid]",0.020
20,"CCNc1cc(F)cc2c1NC(=O)C2(C)N1CC[C@H](c2ccccc2Oc2ccc(C(N)=O)cc2)[C@@H](NC(C)=O)C1 (stereo partly drawn) [Example 57, 4-[2-[(3R,4R)-3-acetamido-1-[7-(ethylamino)-5-fluoro-3-methyl-2-oxo-indolin-3-yl]-4-piperidyl]phenoxy]benzamide]",0.019
21,"CCNc1cc(F)cc2c1NC(=O)C2(C)N1CCC[C@@H](Nc2cnc(C#N)nc2)C1 (stereo partly drawn) [Example 17, 5-[[(3R)-1-[7-(ethylamino)-5-fluoro-3-methyl-2-oxo-indolin-3-yl]-3-piperidyl]amino]pyrimidine-2-carbonitrile]",0.012
22,"CCNc1cc(F)cc2c1NC(=O)C2(C)N1CCC[C@@](C)(Nc2ccc(C#N)nc2)C1 (stereo partly drawn) [Example 23, 5-[[(3R)-1-[7-(ethylamino)-5-fluoro-3-methyl-2-oxo-indolin-3-yl]-3-methyl-3-piperidyl]amino]pyridine-2-carbonitrile]",0.049
23,"CCNc1cc(F)cc2c1NC(=O)C2(C)N1CCC[C@@H](Nc2cccc(OS(=O)(=O)F)c2)C1 (stereo partly drawn) [Example 31, 7-(ethylamino)-5-fluoro-3-methyl-2-oxo-3-[(3R)-3-(3-fluorosulfonyloxyanilino)-1-piperidyl]indoline]",0.197
24,"CCNc1cc(F)cc2c1NC(=O)C2(C)N1CCC[C@@H](Nc2ccc(C#N)c(O)c2)C1 (stereo partly drawn) [Example 9, 4-[[(3R)-1-[7-(ethylamino)-5-fluoro-3-methyl-2-oxo-indolin-3-yl]-3-piperidyl]amino]-2-hydroxy-benzonitrile]",0.015
25,"CCNc1cc(F)cc2c1NC(=O)C2(CC)N1CCC[C@@H](N(C(N)=O)c2ccc(C#N)nc2)C1 (stereo partly drawn) [Example 26, 1-(6-cyano-3-pyridyl)-1-[(3R)-1-[3-ethyl-7-(ethylamino)-5-fluoro-2-oxo-indolin-3-yl]-3-piperidyl]urea]",0.067
26,"CCNc1cc(F)cc2c1NC(=O)C2(C)N1CCC[C@@H](Nc2ccc(C#N)cn2)C1 (stereo partly drawn) [Example 14, 6-[[(3R)-1-[7-(ethylamino)-5-fluoro-3-methyl-2-oxo-indolin-3-yl]-3-piperidyl]amino]pyridine-3-carbonitrile]",0.007
27,"CCNc1cc(F)cc2c1NC(=O)C2(C)N1CCC[C@H](Nc2ccc(C(=O)O)nc2)C1 (stereo partly drawn) [Example 10, 5-[[(3S)-1-[7-(ethylamino)-5-fluoro-3-methyl-2-oxo-indolin-3-yl]-3-piperidyl]amino]pyridine-2-carboxylic acid]",0.059
28,"C=CC(=O)N1CC2(CC(C(=O)N[C@@H]3CCCN(C4(C)C(=O)Nc5c(NCC)cc(F)cc54)C3)C2)C1 (stereo partly drawn) [Example 41, N-[(3R)-1-[7-(ethylamino)-5-fluoro-3-methyl-2-oxo-indolin-3-yl]-3-piperidyl]-2-prop-2-enoyl-2-azaspiro[3.3]heptane-6-carboxamide]",0.032

# Same assay, conditions: 1 nM PDHK1, 25 nM PDHE1, 20 μM ATP, 30° C. for 45 minutes; read-out: Enzymatic IC50 against PDHK1 (converted)
row,SMILES,IC50 [nM]
1,"CCNc1cc(F)cc2c1NC(=O)[C@@]2(C)N1CC[C@@H](c2ccccc2)[C@@H](C(=O)NC)C1 [Example 60B, (3R,4R)-1-[(3S)-7-(ethylamino)-5-fluoro-3-methyl-2-oxo-indolin-3-yl]-N-methyl-4-phenyl-piperidine-3-carboxamide]",21.2
2,"CCNc1cc(F)cc2c1NC(=O)[C@@]2(C)N1CC[C@@H](c2ccccc2)[C@@H](C(N)=O)C1 [Example 59B, (3R,4R)-1-[(3S)-7-(ethylamino)-5-fluoro-3-methyl-2-oxo-indolin-3-yl]-4-phenyl-piperidine-3-carboxamide]",17.1
